Test results from ChEMBL document CHEMBL1201862, “PubChem BioAssay data set” (2004).
Activity calls are given as the source filed them.

What was measured:
[1] = target: T1, Apoptotic protease-activating factor 1 (Homo sapiens, UniProt O14727); test: SAR analysis of small molecule Activators of Apaf-1 in a Fluorescent assay - set 2.; assay type: functional; details: read-out: EC50_Mean
T1 sequence (O14727 whole entry): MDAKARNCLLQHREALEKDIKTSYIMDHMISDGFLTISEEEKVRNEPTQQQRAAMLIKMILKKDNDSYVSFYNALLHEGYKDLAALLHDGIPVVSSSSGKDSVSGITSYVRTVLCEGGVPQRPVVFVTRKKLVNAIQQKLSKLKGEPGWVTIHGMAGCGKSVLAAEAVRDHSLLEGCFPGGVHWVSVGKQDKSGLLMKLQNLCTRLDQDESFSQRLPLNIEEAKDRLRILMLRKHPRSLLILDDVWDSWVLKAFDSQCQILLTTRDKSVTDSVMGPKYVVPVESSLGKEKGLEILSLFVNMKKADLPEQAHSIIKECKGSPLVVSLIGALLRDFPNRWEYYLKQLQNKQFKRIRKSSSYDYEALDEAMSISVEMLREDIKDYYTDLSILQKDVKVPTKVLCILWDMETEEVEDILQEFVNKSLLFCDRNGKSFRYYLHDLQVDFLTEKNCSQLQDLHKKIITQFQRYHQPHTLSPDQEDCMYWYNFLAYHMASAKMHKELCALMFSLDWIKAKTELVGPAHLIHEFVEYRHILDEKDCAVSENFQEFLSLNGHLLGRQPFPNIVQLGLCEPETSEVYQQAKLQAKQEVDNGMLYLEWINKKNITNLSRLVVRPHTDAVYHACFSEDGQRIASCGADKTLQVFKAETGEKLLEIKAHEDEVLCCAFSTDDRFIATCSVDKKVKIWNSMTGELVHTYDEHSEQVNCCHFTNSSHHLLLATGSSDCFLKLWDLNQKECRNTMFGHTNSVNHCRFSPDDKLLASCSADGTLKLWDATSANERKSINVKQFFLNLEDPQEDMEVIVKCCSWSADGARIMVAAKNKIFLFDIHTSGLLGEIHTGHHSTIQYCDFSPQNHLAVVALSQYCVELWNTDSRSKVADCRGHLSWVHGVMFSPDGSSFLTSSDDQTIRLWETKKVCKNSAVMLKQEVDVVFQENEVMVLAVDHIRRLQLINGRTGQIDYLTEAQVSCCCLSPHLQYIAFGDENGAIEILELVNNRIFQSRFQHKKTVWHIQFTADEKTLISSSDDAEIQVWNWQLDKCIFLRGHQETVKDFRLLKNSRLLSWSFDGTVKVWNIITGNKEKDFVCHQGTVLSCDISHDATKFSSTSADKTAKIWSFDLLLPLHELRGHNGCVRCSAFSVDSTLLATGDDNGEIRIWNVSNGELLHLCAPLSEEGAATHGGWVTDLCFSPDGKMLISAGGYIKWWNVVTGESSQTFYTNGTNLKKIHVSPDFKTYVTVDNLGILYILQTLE

[2] = target: T1, Apoptotic protease-activating factor 1; test: SAR analysis of small molecule Activators of Apaf-1 in a Fluorescent assay.; assay type: functional; details: read-out: EC50_Mean
[3] = SAR analysis of small molecule activators of Apaf-1 using a LZ-Caspase-9/Caspase-3 Fluorescent Selectivity assay - Set 2.; assay type: functional; details: read-out: EC50_Mean
[4] = target: T2, Melanin-concentrating hormone receptor 1 (Homo sapiens, UniProt Q99705); test: Late-stage fluorescence-based counterscreen for antagonists of the G-protein coupled receptor 7 (GPR7): cell-based dose response assay to identify antagonists of the melanin-concentrating hormone receptor 1 (MCHR1) Set 6.; assay type: functional
[5] = target: T3, Neuropeptides B/W receptor type 1 (Homo sapiens, UniProt P48145); test: GPR7 antagonist potency, late-stage follow-up, cell-based, fluorescence, dose response, set 6 (AID 588583); assay type: functional
T3 sequence (P48145 whole entry): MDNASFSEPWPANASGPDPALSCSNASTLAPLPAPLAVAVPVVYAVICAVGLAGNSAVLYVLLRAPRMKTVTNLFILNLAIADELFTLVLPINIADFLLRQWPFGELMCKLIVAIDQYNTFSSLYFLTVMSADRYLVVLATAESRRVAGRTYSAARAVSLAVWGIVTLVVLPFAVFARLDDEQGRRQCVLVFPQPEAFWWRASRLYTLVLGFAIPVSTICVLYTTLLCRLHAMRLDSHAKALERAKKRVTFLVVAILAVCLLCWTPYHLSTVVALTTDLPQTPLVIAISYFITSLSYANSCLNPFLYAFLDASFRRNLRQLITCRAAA

[6] = target: T3, Neuropeptides B/W receptor type 1; test: GPR7 antagonist potency, late-stage follow-up, cell-based, fluorescence, dose response, set 5 (AID 588566); assay type: functional
[7] = target: T2, Melanin-concentrating hormone receptor 1; test: Late-stage fluorescence-based counterscreen for antagonists of the G-protein coupled receptor 7 (GPR7): cell-based dose response assay to identify antagonists of the melanin-concentrating hormone receptor 1 (MCHR1) Set 5.; assay type: functional
[8] = target: T4, DNA dC->dU-editing enzyme APOBEC-3A (Homo sapiens, UniProt P31941); test: SAR analysis of small molecule inhibitors of APOBEC3A DNA Deaminase via a fluorescence-based single-stranded DNA deaminase assay - Set 2.; assay type: functional; details: read-out: IC50_Mean
[9] = target: T5, Bcl-2-like protein 10 (Homo sapiens, UniProt Q9HD36); test: displacers of TR3 peptide from Bcl-B, primary screen, selectivity assay for Bfl-1 inhibitor project, biochemical, fluorescence polarization, FITC-TR3 peptide (AID 748);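 further: fluorescence polarization from a fluorescein-labelled TR3 peptide binding purified Bcl-B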
T5 sequence (Q9HD36 whole entry): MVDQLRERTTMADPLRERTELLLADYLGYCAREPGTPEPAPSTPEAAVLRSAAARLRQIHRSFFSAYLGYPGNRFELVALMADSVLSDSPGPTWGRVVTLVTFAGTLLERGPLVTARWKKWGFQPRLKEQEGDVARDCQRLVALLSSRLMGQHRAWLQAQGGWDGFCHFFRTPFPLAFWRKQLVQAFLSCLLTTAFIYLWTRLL

[10] = target: T6, DNA dC->dU-editing enzyme APOBEC-3G (Homo sapiens, UniProt Q9HC16); test: APOBEC3G deaminase inhibitors, SAR follow-up, biochemical, fluorescence, single-stranded DNA substrate (AID 602136); assay type: functional; details: read-out: IC50_Mean
[11] = target: T6, DNA dC->dU-editing enzyme APOBEC-3G; test: SAR analysis of small molecule inhibitors of APOBEC3G DNA Deaminase via a fluorescence-based single-stranded DNA deaminase assay - Set 2.; assay type: functional; details: read-out: IC50_Mean
[12] = target: T4, DNA dC->dU-editing enzyme APOBEC-3A; test: SAR analysis of small molecule inhibitors of APOBEC3A DNA Deaminase via a fluorescence-based single-stranded DNA deaminase assay.; assay type: functional; details: read-out: IC50_Mean
[13] = target: T7, Protein Tat (Human immunodeficiency virus type 1 group M subtype B (isolate HXB2)(HIV-1), UniProt P04608); assay type: functional;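 further: tat binding to TAR RNA read out by fluorescence polarization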
T7 sequence (P04608 whole entry): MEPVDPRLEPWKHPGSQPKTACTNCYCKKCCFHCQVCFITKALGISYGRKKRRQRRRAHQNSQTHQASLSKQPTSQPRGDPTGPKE

[14] = target: Protein kinase C theta type (Homo sapiens, UniProt Q04759); test: Navigating the Kinome. Panel member name: PRKCQ; assay type: functional
[15] = target: Platelet-derived growth factor receptor beta (Homo sapiens, UniProt P09619); assay type: functional;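 further: value comes from a kinome panel, with PDGFRB tested as one panel member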
[16] = target: Cyclin-dependent kinase 19 (Homo sapiens, UniProt Q9BWU1); test: Navigating the Kinome. Panel member name: CDC2L6; assay type: functional
[17] = target: T8, Aurora kinase A (Homo sapiens, UniProt O14965); assay type: functional;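 further: value from the Navigating the Kinome kinase panel profiling, panel entry STK6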
T8 sequence (O14965 whole entry): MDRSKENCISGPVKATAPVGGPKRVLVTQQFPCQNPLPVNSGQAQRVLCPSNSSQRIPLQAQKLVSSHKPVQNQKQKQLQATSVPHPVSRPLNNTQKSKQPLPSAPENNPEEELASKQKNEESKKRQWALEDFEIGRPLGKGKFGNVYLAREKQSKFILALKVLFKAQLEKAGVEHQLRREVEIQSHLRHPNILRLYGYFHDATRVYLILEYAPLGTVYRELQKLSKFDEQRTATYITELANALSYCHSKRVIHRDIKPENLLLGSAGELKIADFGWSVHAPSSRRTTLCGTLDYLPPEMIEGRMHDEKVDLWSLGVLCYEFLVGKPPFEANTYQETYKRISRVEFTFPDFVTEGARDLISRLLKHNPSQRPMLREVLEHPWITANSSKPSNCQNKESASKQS

[18] = target: T9, Serine/threonine-protein kinase Chk1 (Homo sapiens, UniProt O14757); assay type: functional;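 further: measured as one member of a kinome-wide kinase profiling panel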
T9 sequence (O14757 whole entry): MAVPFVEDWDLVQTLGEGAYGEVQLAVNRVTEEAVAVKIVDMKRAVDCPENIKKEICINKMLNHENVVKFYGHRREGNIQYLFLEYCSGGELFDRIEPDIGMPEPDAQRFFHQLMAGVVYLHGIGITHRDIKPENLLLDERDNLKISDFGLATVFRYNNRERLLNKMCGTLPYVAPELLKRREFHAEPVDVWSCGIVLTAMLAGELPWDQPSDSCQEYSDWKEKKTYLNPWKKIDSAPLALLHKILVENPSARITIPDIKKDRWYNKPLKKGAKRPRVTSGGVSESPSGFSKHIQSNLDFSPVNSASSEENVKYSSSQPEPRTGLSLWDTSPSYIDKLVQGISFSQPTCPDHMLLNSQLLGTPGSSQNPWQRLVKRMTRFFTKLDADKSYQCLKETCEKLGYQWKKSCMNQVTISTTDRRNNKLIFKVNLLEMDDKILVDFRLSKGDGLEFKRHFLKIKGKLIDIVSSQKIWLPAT

[19] = target: Leukocyte tyrosine kinase receptor (Homo sapiens, UniProt P29376); test: Navigating the Kinome. Panel member name: LTK; assay type: functional
[20] = target: Macrophage colony-stimulating factor 1 receptor (Homo sapiens, UniProt P07333); assay type: functional;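 further: value comes from the Navigating the Kinome screening panel, CSF1R member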
[21] = target: Vascular endothelial growth factor receptor 2 (Homo sapiens, UniProt P35968); assay type: functional
[22] = target: Tyrosine-protein kinase ABL1 (Homo sapiens, UniProt P00519); assay type: functional
[23] = target: Rho-associated protein kinase 1 (Homo sapiens, UniProt Q13464); assay type: functional;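 further: measured within a broad kinome-wide panel profiling many kinases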
[24] = target: ALK tyrosine kinase receptor (Homo sapiens, UniProt Q9UM73); assay type: functional;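 further: ALK tested as one member of a kinase panel screen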
[25] = target: cAMP-dependent protein kinase catalytic subunit alpha (Homo sapiens, UniProt P17612); assay type: functional
[26] = target: Dual specificity tyrosine-phosphorylation-regulated kinase 1B (Homo sapiens, UniProt Q9Y463); test: Navigating the Kinome. Panel member name: DYRK1B; assay type: functional
[27] = target: LIM domain kinase 1 (Homo sapiens, UniProt P53667); test: Navigating the Kinome. Panel member name: LIMK1; assay type: functional
[28] = target: Dual specificity tyrosine-phosphorylation-regulated kinase 1A (Homo sapiens, UniProt Q13627); assay type: functional;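 further: measured against DYRK1A as one member of a broad kinome profiling panel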
[29] = target: Cyclin-dependent kinase 9 (Homo sapiens, UniProt P50750); assay type: functional;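 further: value from the CDK9 entry of a kinome-spanning kinase panel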
[30] = target: Death-associated protein kinase 3 (Homo sapiens, UniProt O43293); assay type: functional;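 further: measured as one member of a kinome-wide profiling panel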

T2 sequence (Q99705 whole entry): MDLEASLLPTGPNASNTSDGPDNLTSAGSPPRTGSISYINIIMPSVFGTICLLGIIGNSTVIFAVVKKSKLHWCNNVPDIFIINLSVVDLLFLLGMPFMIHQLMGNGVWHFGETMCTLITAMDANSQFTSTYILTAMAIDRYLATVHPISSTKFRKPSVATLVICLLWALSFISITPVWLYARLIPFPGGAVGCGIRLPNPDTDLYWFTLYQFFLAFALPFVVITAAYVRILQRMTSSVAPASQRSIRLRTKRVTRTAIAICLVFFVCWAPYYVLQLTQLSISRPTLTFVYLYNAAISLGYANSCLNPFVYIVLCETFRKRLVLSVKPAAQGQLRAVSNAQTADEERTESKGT
T4 sequence (P31941 whole entry): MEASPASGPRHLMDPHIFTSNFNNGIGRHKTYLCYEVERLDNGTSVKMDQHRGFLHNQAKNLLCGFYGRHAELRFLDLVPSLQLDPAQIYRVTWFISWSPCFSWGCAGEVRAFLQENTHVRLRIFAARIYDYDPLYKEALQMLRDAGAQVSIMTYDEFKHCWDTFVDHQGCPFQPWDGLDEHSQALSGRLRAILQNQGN
T6 sequence (Q9HC16 whole entry): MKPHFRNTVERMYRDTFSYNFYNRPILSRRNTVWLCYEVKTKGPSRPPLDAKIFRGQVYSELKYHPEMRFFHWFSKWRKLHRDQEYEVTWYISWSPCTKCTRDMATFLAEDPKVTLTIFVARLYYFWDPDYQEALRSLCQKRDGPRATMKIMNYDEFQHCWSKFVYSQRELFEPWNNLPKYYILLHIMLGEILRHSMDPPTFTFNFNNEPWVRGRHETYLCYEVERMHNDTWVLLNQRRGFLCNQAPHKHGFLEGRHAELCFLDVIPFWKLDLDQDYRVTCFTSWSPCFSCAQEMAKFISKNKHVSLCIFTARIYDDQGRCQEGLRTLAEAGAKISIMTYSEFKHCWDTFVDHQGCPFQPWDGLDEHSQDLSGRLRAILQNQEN
Cyclin-dependent kinase 9, sequence (P50750 whole entry): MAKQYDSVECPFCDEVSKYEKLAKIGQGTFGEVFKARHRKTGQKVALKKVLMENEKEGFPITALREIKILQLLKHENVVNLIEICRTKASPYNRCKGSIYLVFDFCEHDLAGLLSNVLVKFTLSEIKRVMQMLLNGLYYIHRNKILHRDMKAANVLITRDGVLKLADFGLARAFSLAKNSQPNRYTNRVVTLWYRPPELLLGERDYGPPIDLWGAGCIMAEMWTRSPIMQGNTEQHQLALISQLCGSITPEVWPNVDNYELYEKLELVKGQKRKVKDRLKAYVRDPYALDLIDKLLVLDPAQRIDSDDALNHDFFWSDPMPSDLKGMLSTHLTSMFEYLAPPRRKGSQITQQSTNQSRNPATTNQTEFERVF
ALK tyrosine kinase receptor, sequence (Q9UM73 whole entry): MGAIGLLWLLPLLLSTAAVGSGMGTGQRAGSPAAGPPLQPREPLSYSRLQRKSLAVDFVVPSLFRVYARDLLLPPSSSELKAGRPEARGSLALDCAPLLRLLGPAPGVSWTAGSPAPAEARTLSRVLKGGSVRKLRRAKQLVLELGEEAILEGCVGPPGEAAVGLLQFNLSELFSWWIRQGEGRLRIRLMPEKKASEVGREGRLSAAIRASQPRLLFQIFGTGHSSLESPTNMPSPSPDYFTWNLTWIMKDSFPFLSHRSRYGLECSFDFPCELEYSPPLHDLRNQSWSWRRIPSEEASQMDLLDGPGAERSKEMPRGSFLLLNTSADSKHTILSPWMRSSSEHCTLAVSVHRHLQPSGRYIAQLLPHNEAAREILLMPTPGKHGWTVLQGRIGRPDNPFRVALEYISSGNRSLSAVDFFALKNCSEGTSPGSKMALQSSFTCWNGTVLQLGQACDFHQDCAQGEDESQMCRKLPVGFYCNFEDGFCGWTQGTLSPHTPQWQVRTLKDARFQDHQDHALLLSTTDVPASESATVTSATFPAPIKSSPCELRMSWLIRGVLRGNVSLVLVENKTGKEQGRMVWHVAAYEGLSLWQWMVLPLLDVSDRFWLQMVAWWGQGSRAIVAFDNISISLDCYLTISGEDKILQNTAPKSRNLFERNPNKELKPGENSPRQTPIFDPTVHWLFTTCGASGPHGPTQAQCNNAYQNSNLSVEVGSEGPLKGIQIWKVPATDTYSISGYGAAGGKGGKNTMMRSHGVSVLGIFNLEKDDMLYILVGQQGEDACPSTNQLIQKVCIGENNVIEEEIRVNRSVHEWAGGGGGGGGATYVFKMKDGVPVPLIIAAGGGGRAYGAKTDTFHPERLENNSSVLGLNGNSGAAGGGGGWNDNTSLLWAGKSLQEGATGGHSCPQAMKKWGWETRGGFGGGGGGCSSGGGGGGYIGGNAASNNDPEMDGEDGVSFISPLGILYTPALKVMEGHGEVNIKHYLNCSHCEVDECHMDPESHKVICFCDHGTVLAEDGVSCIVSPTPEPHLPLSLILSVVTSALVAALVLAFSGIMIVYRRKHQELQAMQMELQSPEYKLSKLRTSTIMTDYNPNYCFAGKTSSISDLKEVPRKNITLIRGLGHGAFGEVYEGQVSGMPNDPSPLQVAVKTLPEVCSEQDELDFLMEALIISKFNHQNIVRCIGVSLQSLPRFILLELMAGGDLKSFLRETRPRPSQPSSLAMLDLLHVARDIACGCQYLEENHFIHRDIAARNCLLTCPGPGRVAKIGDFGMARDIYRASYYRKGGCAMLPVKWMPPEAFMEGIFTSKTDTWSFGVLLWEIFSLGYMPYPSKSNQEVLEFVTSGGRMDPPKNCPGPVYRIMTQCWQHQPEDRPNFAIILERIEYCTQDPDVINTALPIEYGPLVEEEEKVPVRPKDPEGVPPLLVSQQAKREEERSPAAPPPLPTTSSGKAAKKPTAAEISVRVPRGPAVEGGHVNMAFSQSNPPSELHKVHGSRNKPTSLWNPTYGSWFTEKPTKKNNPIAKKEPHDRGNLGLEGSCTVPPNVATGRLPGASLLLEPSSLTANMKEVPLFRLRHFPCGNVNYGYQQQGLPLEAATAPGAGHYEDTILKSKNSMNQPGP
Platelet-derived growth factor receptor beta, sequence (P09619 whole entry): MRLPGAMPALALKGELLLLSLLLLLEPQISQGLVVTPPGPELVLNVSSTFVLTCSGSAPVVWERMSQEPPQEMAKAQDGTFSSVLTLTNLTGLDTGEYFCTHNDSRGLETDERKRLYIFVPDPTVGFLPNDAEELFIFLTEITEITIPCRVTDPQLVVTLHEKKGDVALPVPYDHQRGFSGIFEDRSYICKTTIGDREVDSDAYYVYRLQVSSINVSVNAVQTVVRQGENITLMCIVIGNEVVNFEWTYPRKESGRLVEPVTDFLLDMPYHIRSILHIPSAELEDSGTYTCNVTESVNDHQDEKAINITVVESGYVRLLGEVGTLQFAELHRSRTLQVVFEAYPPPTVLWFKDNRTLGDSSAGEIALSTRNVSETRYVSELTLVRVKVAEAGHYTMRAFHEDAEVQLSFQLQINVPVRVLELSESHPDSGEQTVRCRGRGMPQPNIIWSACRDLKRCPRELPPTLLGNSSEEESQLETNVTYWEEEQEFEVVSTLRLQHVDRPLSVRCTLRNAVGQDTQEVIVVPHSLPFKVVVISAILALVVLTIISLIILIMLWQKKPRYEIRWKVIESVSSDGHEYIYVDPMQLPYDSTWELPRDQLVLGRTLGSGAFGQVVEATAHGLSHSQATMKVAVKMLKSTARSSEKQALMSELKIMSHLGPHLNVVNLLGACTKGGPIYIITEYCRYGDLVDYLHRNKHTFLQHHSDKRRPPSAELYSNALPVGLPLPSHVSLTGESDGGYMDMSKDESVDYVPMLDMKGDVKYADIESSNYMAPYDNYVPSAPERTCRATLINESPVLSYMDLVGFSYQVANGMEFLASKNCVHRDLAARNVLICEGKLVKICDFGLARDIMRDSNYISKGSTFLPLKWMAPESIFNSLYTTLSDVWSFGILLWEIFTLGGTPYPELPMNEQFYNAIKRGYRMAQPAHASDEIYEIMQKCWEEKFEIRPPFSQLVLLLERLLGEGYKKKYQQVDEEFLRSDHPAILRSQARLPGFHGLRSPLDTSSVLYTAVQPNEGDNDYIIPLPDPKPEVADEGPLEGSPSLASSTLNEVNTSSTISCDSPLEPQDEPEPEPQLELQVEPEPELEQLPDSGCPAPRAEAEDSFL
LIM domain kinase 1, sequence (P53667 whole entry, the tested form may be a part): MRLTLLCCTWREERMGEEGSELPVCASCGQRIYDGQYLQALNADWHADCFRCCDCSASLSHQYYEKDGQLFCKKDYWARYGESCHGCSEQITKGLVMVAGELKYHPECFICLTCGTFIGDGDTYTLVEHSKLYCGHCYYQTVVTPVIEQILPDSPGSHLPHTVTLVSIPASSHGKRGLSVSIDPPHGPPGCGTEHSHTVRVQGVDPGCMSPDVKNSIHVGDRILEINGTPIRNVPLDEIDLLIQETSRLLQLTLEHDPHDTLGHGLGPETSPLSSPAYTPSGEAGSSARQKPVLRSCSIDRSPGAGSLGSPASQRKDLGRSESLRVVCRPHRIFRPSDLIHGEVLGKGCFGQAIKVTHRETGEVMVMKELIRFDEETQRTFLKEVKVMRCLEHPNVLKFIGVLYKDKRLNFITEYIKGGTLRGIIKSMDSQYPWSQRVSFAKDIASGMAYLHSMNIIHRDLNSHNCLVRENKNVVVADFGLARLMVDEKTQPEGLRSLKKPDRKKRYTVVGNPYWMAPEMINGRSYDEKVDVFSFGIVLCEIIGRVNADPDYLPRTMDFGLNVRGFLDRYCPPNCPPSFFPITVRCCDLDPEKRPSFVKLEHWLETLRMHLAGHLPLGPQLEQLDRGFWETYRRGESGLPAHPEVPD

In the case of `Cc1cc(C)n(C(C)C(C)C(=O)O)n1` (stereo not given), the EC50 [1] is reported as > 100 µM (inactive), the EC50 [2] is reported as > 100 µM (inactive) and the EC50 [3] is reported as > 100 µM (inactive).

For `N#CC(c1ccccc1)c1ccnn(Cc2cccc3ccccc23)c1=O` (stereo not given), the IC50 [4] was > 20 µM (inactive) and the IC50 [5] was > 20 µM (inactive).

In the case of `COc1ccc(Oc2c(C=O)cnn(Cc3cccc4ccccc34)c2=O)cc1`, the IC50 [6] is reported as 1.76 µM (active) and the IC50 [7] is reported as 0.91 µM (active).

For `Cc1ccc(C)n1Cc1ccc(C(=O)O)cc1`, the IC50 [8] was 4.11 µM (active), the IC50 [9] was 6.93 µM (active) and the IC50 [10] was 39.3 µM (inactive). For the same compound, the IC50 [11] was 1.98 µM (active), the IC50 [12] was 52.6 µM (inactive) and the IC50 [13] was 3.45 µM (inconclusive).

For `Nc1ccc(-c2cccn3c(=O)[nH]nc23)cc1`, the Ki [14] was > 100 µM (inactive), the Ki [15] was > 79.4 µM (inactive) and the Ki [16] was > 100 µM (inactive). For the same compound, the Ki [17] was > 63.1 µM (inactive), the Ki [18] was 12.6 µM (active) and the Ki [19] was 3.16 µM (active). The Ki [20] was > 100 µM (inactive), the Ki [21] was 39.8 µM (active) and the Ki [22] was 50.1 µM (active). The Ki [23] was 12.6 µM (active), the Ki [24] was 6.31 µM (active) and the Ki [25] was 50.1 µM (active). The Ki [26] was 63.1 µM (active), the Ki [27] was 31.6 µM (active) and the Ki [28] was > 79.4 µM (inactive). For the same compound, the Ki [29] was > 63.1 µM (inactive) and the Ki [30] was 79.4 µM (active).
